Columns and labels:
[1] = Hydrophobic chromatography (analytical HPLC, chromolite RP-18e) as estimate of overall lipophilicity; conditions: chromolite R.P-18e column, mixture of 40 μg each, FIG. 3
Method: Analytical reverse phase-HPLC was performed using a pre-packed Chromolith™ Performance RP-18e column (4.6×100 mm, Merck, Darmstadt, Germany). The column was eluted with a binary gradient of 10-100% solution B over 10 min with a flow rate of 3 ml/min (solution A was 0.1% trifluoroacetic acid in H2O and solution B was 0.1% trifluoroacetic acid in acetonitrile:H2O; 3:1, v/v).
This approach of hydrophobic chromatography yields an estimate of the overall lipophilicity of peptide analogs (Shechter et al., 2010).

[2] = said to have; cited from earlier work
CD1-mice = experiment: Blood glucose levels in CD1 mice after a single administration; type: in vivo
Method: (§1) Each point is the arithmetic mean of n=6 mice±SE.
as §1
Blood glucose levels were determined at varying time points following administration of insulin, exendin-4, and their derivatives in blood aliquots taken from the tail vein. Glucose analyzer (Beckman Instruments Fullerton, Calif.) was used. Groups consisted of six mice each. Data are presented as means±SE.

[3] = background statement; cited from earlier work
[4] = single subcutaneous 0.25 nmole/mouse, CD1 mice

Row | Substance | Rt value, hydrophobic chromatography (estimate of overall lipophilicity) [1] | Duration of action [2] | Blood glucose level 48 hrs after administration (last time point) (CD1-mice; intravenous 0.25 nmole/mouse) | t1/2 value of glucose-lowering (CD1-mice; single intravenous 0.25 nmole/mouse, CD1 mice) | Glucose level reached after administration (CD1-mice; [4]) | Period over which glucose remained at low level (CD1-mice; [4]) | t1/2 value of glucose-lowering (CD1-mice; [4]) | Glucose level reached after administration (CD1-mice; single subcutaneous 0.25 nmole/mouse, CD1 mice, listed as HO3S—(CH2)15—CO-exendin-4) | t1/2 of glucose reduction (CD1-mice; subcutaneous and intravenous administration, stated together) | t1/2 of glucose-lowering effect (CD1-mice; single subcutaneous 0.69 nmole/mouse, CD1 mice) | t1/2 in plasma [3]
1 | N^εB29-tetradecanoyl des(B30) insulin [insulin-detemir] | 9.107 min | up to 24 hours | – | – | – | – | – | – | – | – | –
2 | exendin-4-CO—(CH2)15—SO3^− | – | – | still low | 28 ± 2 h | 70 ± 5 mg/dL | ~24 h | 32 ± 2 h | 70+5 mg/dl | 28 to 32 h | – | –
3 | insulin: Human (Zn^2+-free) insulin | 7.312 min | – | – | – | – | – | – | – | – | 2 ± 0.2 h | 5 to 6 min

From patent US9480751B2, “Albumin binding probes and drug conjugates thereof” (priority 2011, dated 2016)
